Experimental data taken from patent US7378446B2, “Compound having anti-HCV activity and process for producing the same” (Chugai Seiyaku Kabushiki Kaisha, priority 2003, dated 2008).

Assays:
in vitro = assay type: cell-based; details: human; replicon cells, 3 days culture with compound, Cell Counting Kit 8, absorbance 450 nm; read-out: Cytotoxicity CC50
Procedure: (§1) A construct was prepared in which a luciferase gene derived from firefly was introduced as a reporter gene in HCV-RNA to assay the number of copies of HCV-RNA. The luciferase gene was introduced in the form of fusing with neomycin-resistance gene directly below the IRES (Internal Ribosome Entry Site) of the HCV gene in accordance with the method of Krieger, et al. (J. Virol. 75:4614). After synthesizing this RNA in vitro, it was introduced into Huh7 cell by electroporation and isolated as G418-resistant clone. Firefly luciferase HCV replicon cells (3-1) were suspended in Dulbecco's MEM (Gibco cat. no. 10569-010) containing 5% fetal bovine serum (Hyclone cat. no. SH30071.03), inoculated into the wells of a 96-well plate at 5000 cells/well and then cultured overnight at 37° C. and 5% CO2. Approximately 20 hours later, the diluted test compound was added at 10 μl per well followed by culturing for another 3 days. Two series of assay plates were prepared, and the assay was carried out using a white plate for one series and a clear plate for the other series. Following completion of culturing, the white plate was used for the Steady-Glo Luciferase Assay System (Promega cat. no. E2520). Namely, after adding 100 μl of reagent per well, mixing by a pipette 3 to 4 times and then allowing to stand for 5 minutes, luminescence was measured with the 1450 MicroBeta TRILUX (Wallac). Values obtained in the absence of cell addition were used as background values and subtracted from all values to calculate the IC50 (50% inhibitory concentration) of the drug based on a value of 0% inhibition for the value in the absence of addition of test compound.
The Cell Counting Kit 8 (Dojindo cat. no. CK04) was used to determine the cytotoxicity. Namely, 10 μl of Cell Counting Kit 8 were added to a clear plate and incubated for 30 to 60 minutes at 37° C. Absorbance at a wavelength of 450 nm and a control wavelength of 630 nm was measured with a 96-well plate reader. Values in the absence of cell addition were used as background values and subtracted from all values to calculate the CC50 (50% cell inhibitory concentration) of the drug based on a value of 0% inhibition for the value in the absence of addition of drug.

[1] = tested on: Firefly luciferase HCV replicon cells (3-1); test: Replicon assay (firefly luciferase HCV replicon); assay type: cell-based; details: Hepatitis C virus, 72 h; Huh7-derived luciferase HCV replicon cells, 3 days culture with compound, Steady-Glo luminescence
Procedure: as §1

SMILES | CC50 (in vitro) [nM] | IC50 [1] [nM]
CCCCCCCC(=O)CCCCCC/C=C/[C@H](C(=O)N[C@@H](Cc1ccc(Oc2ccccc2)cc1)C(=O)O)[C@@](O)(CC(=O)O)C(=O)O [Compound 15] | > 5000 | 2
CCCCCCCC(=O)CCCCCC/C=C/[C@H](C(=O)N[C@@H](Cc1ccc(C)cc1)C(=O)O)[C@@](O)(CC(=O)O)C(=O)O [Compound 16] | > 5000 | 10
CCCCCCCC(=O)CCCCCC/C=C/[C@H](C(=O)N[C@@H](Cc1ccc(OCc2ccccc2)cc1)C(=O)O)[C@@](O)(CC(=O)O)C(=O)O [Compound 17] | > 5000 | < 1
CC#CCOc1ccc(C[C@H](NC(=O)[C@@H](/C=C/CCCCCCC(=O)CCCCCCC)[C@@](O)(CC(=O)O)C(=O)O)C(=O)O)cc1 [Compound 18] | > 5000 | 1
CCCCCCCC(=O)CCCCCC/C=C/[C@H](C(=O)N[C@@H](Cc1ccc(-c2ccccc2)cc1)C(=O)O)[C@@](O)(CC(=O)O)C(=O)O [Compound 19] | > 5000 | 2
CCCCCCCC(=O)CCCCCC/C=C/[C@H](C(=O)N[C@@H](Cc1ccc2ccccc2c1)C(=O)O)[C@@](O)(CC(=O)O)C(=O)O [Compound 20] | > 5000 | 7
CCCCCCCC(=O)CCCCCC/C=C/[C@H](C(=O)N[C@@H](Cc1ccc(OC2CCCCC2)cc1)C(=O)O)[C@@](O)(CC(=O)O)C(=O)O [Compound 21] | > 1000 | 4
CCCCCCCC(=O)CCCCCC/C=C/[C@H](C(=O)N[C@@H](Cc1ccc(CCCC(C)C)cc1)C(=O)O)[C@@](O)(CC(=O)O)C(=O)O [Compound 22] | > 1000 | 14
CCCCCCCC(=O)CCCCCC/C=C/[C@H](C(=O)N[C@@H](Cc1ccc(OC)c(OC)c1)C(=O)O)[C@@](O)(CC(=O)O)C(=O)O [Compound 23] | > 1000 | 17
CCCCCCCC(=O)CCCCCC/C=C/[C@H](C(=O)N[C@@H](Cc1ccc(Oc2ccc(Cl)cc2)cc1)C(=O)O)[C@@](O)(CC(=O)O)C(=O)O [Compound 24] | > 1000 | 11
CCCCCCCC(=O)CCCCCC/C=C/[C@H](C(=O)N[C@@H](Cc1ccc(Oc2ccc(F)cc2)cc1)C(=O)O)[C@@](O)(CC(=O)O)C(=O)O [Compound 25] | > 1000 | 9
CCCCCCCC(=O)CCCCCC/C=C/[C@H](C(=O)N[C@@H](Cc1ccc(CCCCC)cc1)C(=O)O)[C@@](O)(CC(=O)O)C(=O)O [Compound 26] | > 1000 | 17
CCCCCCCC(=O)CCCCCC/C=C/[C@H](C(=O)N[C@@H](Cc1ccc(-c2cccnc2)cc1)C(=O)O)[C@@](O)(CC(=O)O)C(=O)O [Compound 27] | > 1000 | 10
CCCCCCCC(=O)CCCCCC/C=C/[C@H](C(=O)N[C@@H](Cc1ccc(-c2ccc(Cl)cc2)cc1)C(=O)O)[C@@](O)(CC(=O)O)C(=O)O [Compound 28] | > 1000 | 9
CCCCCCCC(=O)CCCCCC/C=C/[C@H](C(=O)N[C@@H](Cc1ccc(-c2ccc(F)cc2)cc1)C(=O)O)[C@@](O)(CC(=O)O)C(=O)O [Compound 29] | > 1000 | 6
CCCCCCCC(=O)CCCCCC/C=C/[C@H](C(=O)N[C@@H](Cc1ccc(-c2ccc(F)cc2F)cc1)C(=O)O)[C@@](O)(CC(=O)O)C(=O)O [Compound 30] | > 1000 | 8
CCCCCCCC(=O)CCCCCC/C=C/[C@H](C(=O)N[C@@H](Cc1ccc(-c2ccsc2)cc1)C(=O)O)[C@@](O)(CC(=O)O)C(=O)O [Compound 31] | > 1000 | 12
CCCCCCCC(=O)CCCCCC/C=C/[C@H](C(=O)NC(Cc1ccc(C(F)(F)F)cc1)C(=O)O)[C@@](O)(CC(=O)O)C(=O)O (some centres unmarked) [Compound 32] | > 1000 | 68
CCCCCCCC(=O)CCCCCC/C=C/[C@H](C(=O)NC(Cc1ccc(C#N)cc1)C(=O)O)[C@@](O)(CC(=O)O)C(=O)O (some centres unmarked) [Compound 33] | > 1000 | 12

SMILES | CC50 (in vitro) [nM] | IC50 [1] [nM]
CCCCCCCC(=O)CCCCCC/C=C/[C@H](C(=O)NC(Cc1ccc(Cl)cc1)C(=O)O)[C@@](O)(CC(=O)O)C(=O)O (some centres unmarked) [Compound 34] | > 1000 | 55
CCCCCCCC(=O)CCCCCC/C=C/[C@H](C(=O)NC(Cc1ccc([N+](=O)[O-])cc1)C(=O)O)[C@@](O)(CC(=O)O)C(=O)O (some centres unmarked) [Compound 35] | > 1000 | 80
CCCCCCCC(=O)CCCCCC/C=C/[C@H](C(=O)N[C@@H](Cc1cccs1)C(=O)O)[C@@](O)(CC(=O)O)C(=O)O [Compound 36] | > 1000 | 500
CCCCCCCC(=O)CCCCCC/C=C/[C@H](C(=O)N[C@@H](Cc1ccc(C(C)(C)C)cc1)C(=O)O)[C@@](O)(CC(=O)O)C(=O)O [Compound 37] | > 1000 | 210
CCCCCCCC(=O)CCCCCC/C=C/[C@H](C(=O)N[C@@H](Cc1ccc(-c2cccc(Cl)c2)cc1)C(=O)O)[C@@](O)(CC(=O)O)C(=O)O [Compound 38] | > 1000 | 24
CCCCCCCC(=O)CCCCCC/C=C/[C@H](C(=O)N[C@@H](Cc1ccc(Oc2cccc(Cl)c2)cc1)C(=O)O)[C@@](O)(CC(=O)O)C(=O)O [Compound 39] | > 1000 | 20
CCCCCCCC(=O)CCCCCC/C=C/[C@H](C(=O)NC(Cc1ccc(OCCCC)cc1)C(=O)O)[C@@](O)(CC(=O)O)C(=O)O (some centres unmarked) [Compound 40] | > 1000 | 1
CCCCCCCC(=O)CCCCCC/C=C/[C@H](C(=O)NC(Cc1ccc(OCCC)cc1)C(=O)O)[C@@](O)(CC(=O)O)C(=O)O (some centres unmarked) [Compound 41] | > 1000 | 2
C=CCOc1ccc(CC(NC(=O)[C@@H](/C=C/CCCCCCC(=O)CCCCCCC)[C@@](O)(CC(=O)O)C(=O)O)C(=O)O)cc1 (some centres unmarked) [Compound 42] | > 1000 | 1
CCCCCCCC(=O)CCCCCC/C=C/[C@H](C(=O)NC(Cc1ccc(OC)cc1)C(=O)O)[C@@](O)(CC(=O)O)C(=O)O (some centres unmarked) [Compound 43] | > 1000 | 3
CCCCCC(=O)CCCCCCCC/C=C/[C@H](C(=O)N[C@@H](Cc1ccc(OCCC(C)C)cc1)C(=O)O)[C@@](O)(CC(=O)O)C(=O)O [Compound 44] | > 1000 | 1
CCCCCCCCCC(=O)CCCC/C=C/[C@H](C(=O)N[C@@H](Cc1ccc(OCCC(C)C)cc1)C(=O)O)[C@@](O)(CC(=O)O)C(=O)O [Compound 45] | > 1000 | 5
CCCC(=O)CCCCCC/C=C/[C@H](C(=O)N[C@@H](Cc1ccc(OCCC(C)C)cc1)C(=O)O)[C@@](O)(CC(=O)O)C(=O)O [Compound 46] | > 5000 | 800
CC(C)CCOc1ccc(C[C@H](NC(=O)[C@@H](/C=C/CCCCCCC(=O)CCc2ccccc2)[C@@](O)(CC(=O)O)C(=O)O)C(=O)O)cc1 [Compound 47] | > 1000 | 250
C=CCCCCCC(=O)CCCCCC/C=C/[C@H](C(=O)N[C@@H](Cc1ccc(OCCC(C)C)cc1)C(=O)O)[C@@](O)(CC(=O)O)C(=O)O [Compound 48] | > 1000 | 3
CCCCCCCCC(=O)CCCCCC/C=C/[C@H](C(=O)N[C@@H](Cc1ccc(OCCC(C)C)cc1)C(=O)O)[C@@](O)(CC(=O)O)C(=O)O [Compound 49] | > 1000 | 4
CC(C)CCCCC(=O)CCCCCC/C=C/[C@H](C(=O)N[C@@H](Cc1ccc(OCCC(C)C)cc1)C(=O)O)[C@](O)(CC(=O)O)C(=O)O [Compound 50] | > 1000 | 4
CCCCCCC(=O)CCCCCC/C=C/[C@H](C(=O)N[C@@H](Cc1ccc(OCCC(C)C)cc1)C(=O)O)[C@](O)(CC(=O)O)C(=O)O [Compound 51] | > 1000 | 17
